Test system: Dengue-2 (Strain New Guinea C)
Experiment: viral yield assay against Dengue-2 in Vero cells
Format: cell-based
Conditions: Dengue virus; Vero cells, MOI 0.1, harvested 48 hours post infection; read-out: Activity (anti-dengue 2 viral activity, EC50)
Description: Compounds that were active in the primary screen were also tested for activity in viral yield assays. […] Vero cells in 12-well plates were infected with dengue-2 virus at a multiplicity of infection (MOI) of 0.1, treated with compound (or DMSO as a control), incubated at 37° C., harvested 48 hours post infection and titered on Vero cells as described above. The EC50 was calculated through ExcelFit. Those compounds with activity below 1 μM are indicated with “A”, those with activity between 1 and 10 μM are indicated with “B”, those with activity between 10 and 25 μM with “C”, and those with activity above 25 μM are indicated with “D”.

| SMILES | EC50 |
| --- | --- |
| CCN(CC)S(=O)(=O)c1cc(C)c(C)c(NC(=O)Cn2cnc3ccccc3c2=O)c1 [Compound 90, N-(5-Diethylsulfamoyl-2,3-dimethyl-phenyl)-2-(4-oxo-4H-quinazolin-3-yl)-acetamide] | > 25 µM |
| CCN(CC)S(=O)(=O)c1ccc(OC)c(NC(=O)Cn2cnc3ccccc3c2=O)c1 [Compound 91, N-(5-Diethylsulfamoyl-2-methoxy-phenyl)-2-(4-oxo-4H-quinazolin-3-yl)-acetamide] | > 25 µM |
| CCOc1ccc(S(=O)(=O)N(CC)CC)cc1NC(=O)Cn1cnc2ccccc2c1=O [Compound 92, N-(5-Diethylsulfamoyl-2-ethoxy-phenyl)-2-(4-oxo-4H-quinazolin-3-yl)-acetamide] | > 25 µM |
| CCN(CC)S(=O)(=O)c1ccc(Cl)c(NC(=O)Cn2cnc3ccccc3c2=O)c1 [Compound 93, N-(2-Chloro-5-diethylsulfamoyl-phenyl)-2-(4-oxo-4H-quinazolin-3-yl)-acetamide] | > 25 µM |
| CCN(CC)S(=O)(=O)c1ccc(O)c(NC(=O)Cn2nnc3ccccc3c2=O)c1 [Compound 94, N-(5-Diethylsulfamoyl-2-hydroxy-phenyl)-2-(4-oxo-4H-benzo[d][1,2,3]triazin-3-yl)-acetamide] | > 25 µM |
| CCN(CC)S(=O)(=O)c1ccc(C)c(NC(=O)Cn2nnc3ccccc3c2=O)c1 [Compound 95, N-(5-Diethylsulfamoyl-2-methyl-phenyl)-2-(4-oxo-4H-benzo[d][1,2,3]triazin-3-yl)-acetamide] | > 25 µM |
| CCN(CC)S(=O)(=O)c1ccc2c(c1)CCN2Cc1nc2ccccc2c(=O)n1C [Compound 96, 1-(3-Methyl-4-oxo-3,4-dihydro-quinazolin-2-ylmethyl)-2,3-dihydro-1H-indole-5-sulfonic acid diethylamide] | > 25 µM |
| CCN(CC)S(=O)(=O)c1ccc2c(c1)CCCN2C(=O)Cn1cnc2c(C)cccc2c1=O [Compound 97, 1-[2-(8-Methyl-4-oxo-4H-quinazolin-3-yl)-acetyl]-1,2,3,4-tetrahydro-quinoline-6-sulfonic acid diethylamide] | > 25 µM |
| CN(Cc1ccccc1)S(=O)(=O)c1ccc(NC(=O)CCn2cnc3ccccc3c2=O)cc1 [Compound 98, N-[4-(Benzyl-methyl-sulfamoyl)-phenyl]-3-(4-oxo-4H-quinazolin-3-yl)-propionamide] | > 25 µM |
| Cc1ccc(S(=O)(=O)Nc2ccc3ncn(Cc4ccccc4)c(=O)c3c2)cc1 [Compound 99, N-(3-Benzyl-4-oxo-3,4-dihydro-quinazolin-6-yl)-4-methyl-benzenesulfonamide] | > 25 µM |
| Cc1nn(CC(=O)Nc2ccc(S(N)(=O)=O)cc2)c(=O)c2ccccc12 [Compound 100, 2-(4-Methyl-1-oxo-1H-phthalazin-2-yl)-N-(4-sulfamoyl-phenyl)-acetamide] | > 25 µM |
| CCn1c(=O)c2ccccc2n(CC(=O)NCCc2ccc(S(N)(=O)=O)cc2)c1=O [Compound 101, 2-(3-Ethyl-2,4-dioxo-3,4-dihydro-2H-quinazolin-1-yl)-N-[2-(4-sulfamoyl-phenyl)-ethyl]-acetamide] | > 25 µM |
| Cn1c(=O)c2ccccc2n(CC(=O)NCCc2ccc(S(N)(=O)=O)cc2)c1=O [Compound 102, 2-(3-Methyl-2,4-dioxo-3,4-dihydro-2H-quinazolin-1-yl)-N-[2-(4-sulfamoyl-phenyl)-ethyl]-acetamide] | > 25 µM |
| CC(=O)NCCc1ccc(S(=O)(=O)Nc2ccc3ncn(C)c(=O)c3c2)cc1 [Compound 103, N-{2-[4-(3-Methyl-4-oxo-3,4-dihydro-quinazolin-6-ylsulfamoyl)-phenyl]-ethyl}-acetamide] | > 25 µM |
| CC(=O)NCCc1ccc(S(=O)(=O)Nc2ccc3ncn(Cc4ccccc4)c(=O)c3c2)cc1 [Compound 104, N-{2-[4-(3-Benzyl-4-oxo-3,4-dihydro-quinazolin-6-ylsulfamoyl)-phenyl]-ethyl}-acetamide] | > 25 µM |
| CCN(CC)S(=O)(=O)c1cc(NC(=O)Cn2cnc3ccccc3c2=O)ccc1C [Compound 105, N-(3-Diethylsulfamoyl-4-methyl-phenyl)-2-(4-oxo-4H-quinazolin-3-yl)-acetamide] | > 25 µM |
| NS(=O)(=O)c1cccc(NC(=O)Cn2cnc3ccccc3c2=O)c1 [Compound 106, 2-(4-Oxo-4H-quinazolin-3-yl)-N-(3-sulfamoyl-phenyl)-acetamide] | > 25 µM |
| CN(C)S(=O)(=O)c1cccc(NC(=O)Cn2cnc3ccccc3c2=O)c1 [Compound 107, N-(3-Dimethylsulfamoyl-phenyl)-2-(4-oxo-4H-quinazolin-3-yl)-acetamide] | > 25 µM |
| NS(=O)(=O)c1ccc(NC(=O)Cn2nc(C(=O)O)c3ccccc3c2=O)cc1 [Compound 108, 4-Oxo-3-[(4-sulfamoyl-phenylcarbamoyl)-methyl]-3,4-dihydro-phthalazine-1-carboxylic acid] | > 25 µM |
| NS(=O)(=O)c1ccc(NC(=O)CCc2nc3ccccc3c(=O)[nH]2)cc1 [Compound 109, 3-(4-Oxo-3,4-dihydro-quinazolin-2-yl)-N-(4-sulfamoyl-phenyl)-propionamide] | > 25 µM |
| NS(=O)(=O)c1ccc(NC(=O)Cn2cnc3cc([N+](=O)[O-])ccc3c2=O)cc1 [Compound 110, 2-(7-Nitro-4-oxo-4H-quinazolin-3-yl)-N-(4-sulfamoyl-phenyl)-acetamide] | > 25 µM |
| NS(=O)(=O)c1ccc(NC(=O)COC(=O)Cn2cnc3ccccc3c2=O)cc1 [Compound 111, (4-Oxo-4H-quinazolin-3-yl)-acetic acid (4-sulfamoyl-phenylcarbamoyl)-methyl ester] | > 25 µM |
| CN(Cc1nc2ccccc2c(=O)[nH]1)C(=O)c1ccc(S(=O)(=O)N(C)C)cc1 [Compound 112, 4-Dimethylsulfamoyl-N-methyl-N-(4-oxo-3,4-dihydro-quinazolin-2-ylmethyl)-benzamide] | > 25 µM |
| O=C(Cn1nnc2ccccc2c1=O)Nc1ccc(S(=O)(=O)N2CCCC2)cc1 [Compound 113, 2-(4-Oxo-4H-benzo[d][1,2,3]triazin-3-yl)-N-[4-(pyrrolidine-1-sulfonyl)-phenyl]-acetamide] | > 25 µM |
| CCN(CC(=O)NCCc1ccc(S(N)(=O)=O)cc1)Cc1nc2ccccc2c(=O)[nH]1 [Compound 114, 2-[Ethyl-(4-oxo-3,4-dihydro-quinazolin-2-ylmethyl)-arnino]-N-[2-(4-sulfamoyl-phenyl)-ethyl]-acetamide] | > 25 µM |
| CCN(CC(=O)Nc1ccc(S(=O)(=O)N(C)C)cc1)Cc1nc2ccccc2c(=O)[nH]1 [Compound 115, N-(4-Dimethylsulfamoyl-phenyl)-2-[ethyl-(4-oxo-3,4-dihydro-quinazolin-2-ylmethyl)-amino]-acetamide] | > 25 µM |
| NS(=O)(=O)c1ccc(NC(=O)COC(=O)CCc2nc3ccccc3c(=O)[nH]2)cc1 [Compound 116, 3-(4-Oxo-3,4-dihydro-quinazolin-2-yl)-propionic acid (4-sulfamoyl-phenylcarbamoyl)-methyl ester] | > 25 µM |
| Cc1ccc(S(=O)(=O)N(C)c2ccc(OC(=O)Cn3cnc4ccccc4c3=O)cc2)cc1C [Compound 117, (4-Oxo-4H-quinazolin-3-yl)-acetic acid 4-[(3,4-dimethyl-benzenesulfonyl)-methyl-amino]-phenyl ester] | > 25 µM |
